Results reported in US20020002171A1, “Materials and methods for killing nematodes and nematode eggs” (priority 2000, published 2002).

tested on: Caenorhabditis elegans; experiment: C. elegans L1 nematicidal dose response in 96-well plates, 5 day visual score (Example 2; same procedure for Example 7, Table 3); format: in vivo; design: key to 5 Day Visual Score V1 / 5 Day Visual Score V2 / 5 Day Visual Score V3 / 5 Day Visual Score V4 / 5 Day Visual Score V6 / 5 Day Visual Score V5 / Initial HTS Run Visual Score / Follow-up HTS Run Visual Score: Dead: only stiff L1s (no movement); Dead (L4): worms are dead, but at a later larval stage; majority of worms are L1 (based on size) worms move when plate is tapped; majority of worms are L2 (based on size); majority of worms are L3 (based on size); majority of worms are L4 (based on size); AD: majority of worms are adult; #AD: 5 adult worms or less; B!: sterile (0-25 progeny); B: low broodsize (25-100 progeny); ˜B: moderate broodsize (100-250 progeny); <: reduced broodsize (250-500 progeny); OK: no effect (˜1000+ progeny); conditions: Follow-up HTS run
Description: Caenorhabditis elegans adults were grown on Nematode Growth Medium (NGM) until they produced eggs, then the adults were removed.
The eggs were allowed to hatch, and the L1 larvae collected. See The Nematode Caenorhabditis elegans (1988) Cold Spring Harbor Laboratory Press. Using a Matrix Programmable Pipette, the L1s were distributed into 96-well tissue culture plates, 20 L1 in 50 μl NGM per well. Antibiotic/Antimyoticwas added to each well, and 1% by weight E. coli strain HB101. The subject anthelmintic compounds were stored at 5 mM in 100% DMSO. 0.7 μl of compounds 1-31 were added to the left-most column of wells to yield a final concentration of 70 μM in 1.4% DMSO, with 1.4% DMSO only as the control. The compounds were then subjected to 5 more 3-fold dilutions from left to right to yield 6 column concentrations of 70 μM, 23.3 μM, 7.8 μM, 2.6 μM, 0.9 μM, and 0.3 μM. Plates were stored in air-tight Rubbermaid plastic boxes at 20° C. The nematodes had cleared all control wells by day 4, and nematode viability was scored by visual examination under a 100× dissecting microsope on day 5. A visual viability scoring system was used as follows:
Column V1 has a compound concentration of 70 μM with sequential 3-fold dilutions reported in columns V2, V3, V4, V5, and V6, respectively, such that the V6 concentration was 0.3 μM.
The nematicidal activity of anthelmintic Compositions 48-168 were determined in accordance with the procedure outlined in Example 2.

Row | SMILES | Follow-up HTS Run % Run [%] | Follow-up HTS Run Visual Score | Follow-up HTS Run mOD [mOD]
1 | Cc1cccc(C)c1N1CCN(c2nsc(N3CCC(O)CC3)n2)CC1 [compound 218] | 78 | Dead | 125
2 | Cc1cccc(C)c1N1CCN(c2nsc(N3CC(C)CC(C)C3)n2)CC1 (stereo not drawn) [compound 219] | 74 | Dead/1AD/B! | 119
3 | CCCCN(CCCCO)c1nc(N2CCN(c3c(C)cccc3C)CC2)ns1 [compound 220] | 75 | Dead | 121
4 | COCCN(CCOC)c1nc(N2CCN(c3c(C)cccc3C)CC2)ns1 [compound 221] | 84 | 5AD/B | 136
5 | CCCN(CC1CC1)c1nc(N2CCN(c3ncccn3)CC2)ns1 [compound 222] | 126 | – | 203
6 | CCN(CC)C(=O)C1CCCN(c2nc(N3CCN(c4ccc(F)cc4)CC3)ns2)C1 (stereo not drawn) [compound 223] | 118 | Dead | 190
7 | CCCCNc1nsc(N2CCN(c3cccc(C(F)(F)F)c3)CC2)n1 [compound 224] | 122 | L1 | 196
8 | Fc1ccc(CCNc2nsc(N3CCN(c4cccc(C(F)(F)F)c4)CC3)n2)cc1 [compound 225] | 107 | – | 172

same assay, conditions: Initial HTS run

Row | SMILES | Initial HTS Run % Run [%] | Initial HTS Run Visual Score | Initial HTS Run mOD [mOD]
9 | Cc1cccc(C)c1N1CCN(c2nsc(N3CCC(O)CC3)n2)CC1 [compound 218] | 91 | 1AD/B! | 100
10 | Cc1cccc(C)c1N1CCN(c2nsc(N3CC(C)CC(C)C3)n2)CC1 (stereo not drawn) [compound 219] | 90 | 4AD/B | 99
11 | CCCCN(CCCCO)c1nc(N2CCN(c3c(C)cccc3C)CC2)ns1 [compound 220] | 95 | 1AD/B! | 105
12 | COCCN(CCOC)c1nc(N2CCN(c3c(C)cccc3C)CC2)ns1 [compound 221] | 97 | L4/AD/B | 107
13 | CCCN(CC1CC1)c1nc(N2CCN(c3ncccn3)CC2)ns1 [compound 222] | 106 | L2-Dead L3? | 117
14 | CCN(CC)C(=O)C1CCCN(c2nc(N3CCN(c4ccc(F)cc4)CC3)ns2)C1 (stereo not drawn) [compound 223] | 107 | – | 118
15 | CCCCNc1nsc(N2CCN(c3cccc(C(F)(F)F)c3)CC2)n1 [compound 224] | 143 | – | 157
16 | Fc1ccc(CCNc2nsc(N3CCN(c4cccc(C(F)(F)F)c4)CC3)n2)cc1 [compound 225] | 114 | – | 125

same assay, conditions: dose response, dilution V1, day 5

Row | SMILES | 5 Day Visual Score V1
17 | Cc1cccc(C)c1N1CCN(c2nsc(N3CCC(O)CC3)n2)CC1 [compound 218] | Dead
18 | Cc1cccc(C)c1N1CCN(c2nsc(N3CC(C)CC(C)C3)n2)CC1 (stereo not drawn) [compound 219] | Dead
19 | CCCCN(CCCCO)c1nc(N2CCN(c3c(C)cccc3C)CC2)ns1 [compound 220] | Dead
20 | COCCN(CCOC)c1nc(N2CCN(c3c(C)cccc3C)CC2)ns1 [compound 221] | #AD/˜B
21 | CCCN(CC1CC1)c1nc(N2CCN(c3ncccn3)CC2)ns1 [compound 222] | #AD/˜B
22 | CCN(CC)C(=O)C1CCCN(c2nc(N3CCN(c4ccc(F)cc4)CC3)ns2)C1 (stereo not drawn) [compound 223] | Dead
23 | CCCCNc1nsc(N2CCN(c3cccc(C(F)(F)F)c3)CC2)n1 [compound 224] | Dead

same assay, conditions: dose response, dilution V2, day 5

Row | SMILES | 5 Day Visual Score V2
24 | Cc1cccc(C)c1N1CCN(c2nsc(N3CCC(O)CC3)n2)CC1 [compound 218] | Dead
25 | CCCN(CC1CC1)c1nc(N2CCN(c3ncccn3)CC2)ns1 [compound 222] | OK (no effect (˜1000+ progeny))
26 | CCN(CC)C(=O)C1CCCN(c2nc(N3CCN(c4ccc(F)cc4)CC3)ns2)C1 (stereo not drawn) [compound 223] | B (low broodsize (25-100 progeny))
27 | CCCCNc1nsc(N2CCN(c3cccc(C(F)(F)F)c3)CC2)n1 [compound 224] | Dead

same assay, conditions: dose response, dilution V3, day 5

Row | SMILES | 5 Day Visual Score V3
28 | CCCCN(CCCCO)c1nc(N2CCN(c3c(C)cccc3C)CC2)ns1 [compound 220] | ˜B (moderate broodsize (100-250 progeny))
29 | COCCN(CCOC)c1nc(N2CCN(c3c(C)cccc3C)CC2)ns1 [compound 221] | OK (no effect (˜1000+ progeny))
30 | CCCN(CC1CC1)c1nc(N2CCN(c3ncccn3)CC2)ns1 [compound 222] | OK (no effect (˜1000+ progeny))
31 | CCN(CC)C(=O)C1CCCN(c2nc(N3CCN(c4ccc(F)cc4)CC3)ns2)C1 (stereo not drawn) [compound 223] | < (reduced broodsize (250-500 progeny))
32 | CCCCNc1nsc(N2CCN(c3cccc(C(F)(F)F)c3)CC2)n1 [compound 224] | < (reduced broodsize (250-500 progeny))
33 | Fc1ccc(CCNc2nsc(N3CCN(c4cccc(C(F)(F)F)c4)CC3)n2)cc1 [compound 225] | ˜B (moderate broodsize (100-250 progeny))

same assay, conditions: dose response, dilution V4, day 5

Row | SMILES | 5 Day Visual Score V4
34 | Cc1cccc(C)c1N1CCN(c2nsc(N3CCC(O)CC3)n2)CC1 [compound 218] | OK (no effect (˜1000+ progeny))
35 | Cc1cccc(C)c1N1CCN(c2nsc(N3CC(C)CC(C)C3)n2)CC1 (stereo not drawn) [compound 219] | OK (no effect (˜1000+ progeny))
36 | CCCCN(CCCCO)c1nc(N2CCN(c3c(C)cccc3C)CC2)ns1 [compound 220] | OK (no effect (˜1000+ progeny))
37 | COCCN(CCOC)c1nc(N2CCN(c3c(C)cccc3C)CC2)ns1 [compound 221] | OK (no effect (˜1000+ progeny))
38 | CCCN(CC1CC1)c1nc(N2CCN(c3ncccn3)CC2)ns1 [compound 222] | OK (no effect (˜1000+ progeny))
39 | CCN(CC)C(=O)C1CCCN(c2nc(N3CCN(c4ccc(F)cc4)CC3)ns2)C1 (stereo not drawn) [compound 223] | OK (no effect (˜1000+ progeny))
40 | CCCCNc1nsc(N2CCN(c3cccc(C(F)(F)F)c3)CC2)n1 [compound 224] | OK (no effect (˜1000+ progeny))
41 | Fc1ccc(CCNc2nsc(N3CCN(c4cccc(C(F)(F)F)c4)CC3)n2)cc1 [compound 225] | OK (no effect (˜1000+ progeny))

same assay, conditions: dose response, dilution V5, day 5

Row | SMILES | 5 Day Visual Score V5
42 | Cc1cccc(C)c1N1CCN(c2nsc(N3CCC(O)CC3)n2)CC1 [compound 218] | OK (no effect (˜1000+ progeny))
43 | Cc1cccc(C)c1N1CCN(c2nsc(N3CC(C)CC(C)C3)n2)CC1 (stereo not drawn) [compound 219] | OK (no effect (˜1000+ progeny))
44 | CCCCN(CCCCO)c1nc(N2CCN(c3c(C)cccc3C)CC2)ns1 [compound 220] | OK (no effect (˜1000+ progeny))
45 | COCCN(CCOC)c1nc(N2CCN(c3c(C)cccc3C)CC2)ns1 [compound 221] | OK (no effect (˜1000+ progeny))
46 | CCCN(CC1CC1)c1nc(N2CCN(c3ncccn3)CC2)ns1 [compound 222] | OK (no effect (˜1000+ progeny))
47 | CCN(CC)C(=O)C1CCCN(c2nc(N3CCN(c4ccc(F)cc4)CC3)ns2)C1 (stereo not drawn) [compound 223] | OK (no effect (˜1000+ progeny))
48 | CCCCNc1nsc(N2CCN(c3cccc(C(F)(F)F)c3)CC2)n1 [compound 224] | OK (no effect (˜1000+ progeny))
49 | Fc1ccc(CCNc2nsc(N3CCN(c4cccc(C(F)(F)F)c4)CC3)n2)cc1 [compound 225] | OK (no effect (˜1000+ progeny))

same assay, conditions: dose response, dilution V6, day 5

Row | SMILES | 5 Day Visual Score V6
50 | Cc1cccc(C)c1N1CCN(c2nsc(N3CCC(O)CC3)n2)CC1 [compound 218] | OK (no effect (˜1000+ progeny))
51 | Cc1cccc(C)c1N1CCN(c2nsc(N3CC(C)CC(C)C3)n2)CC1 (stereo not drawn) [compound 219] | OK (no effect (˜1000+ progeny))
52 | CCCCN(CCCCO)c1nc(N2CCN(c3c(C)cccc3C)CC2)ns1 [compound 220] | OK (no effect (˜1000+ progeny))
53 | COCCN(CCOC)c1nc(N2CCN(c3c(C)cccc3C)CC2)ns1 [compound 221] | OK (no effect (˜1000+ progeny))
54 | CCCN(CC1CC1)c1nc(N2CCN(c3ncccn3)CC2)ns1 [compound 222] | OK (no effect (˜1000+ progeny))
55 | CCN(CC)C(=O)C1CCCN(c2nc(N3CCN(c4ccc(F)cc4)CC3)ns2)C1 (stereo not drawn) [compound 223] | OK (no effect (˜1000+ progeny))
56 | CCCCNc1nsc(N2CCN(c3cccc(C(F)(F)F)c3)CC2)n1 [compound 224] | OK (no effect (˜1000+ progeny))
57 | Fc1ccc(CCNc2nsc(N3CCN(c4cccc(C(F)(F)F)c4)CC3)n2)cc1 [compound 225] | OK (no effect (˜1000+ progeny))
